Assay results published in ChEMBL document CHEMBL1201862, “PubChem BioAssay data set” (2004).
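1) Cells in 96-well plates. 2) Compound, 48 h, 5 concentrations. 3) Linear interpolation between surrounding doses. 4) Unreached endpoint = highest concentration. Here, GI50 denotes the concentration required for 50% inhibition of growth.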 Active and inactive are the calls of the source. No stated cut-off is given here; in the data, active = GI50 up to about 1.1 µM and inactive = higher. Square brackets hold non-standard residues; d marks the D form. Peptide text beside a SMILES is read from it. * marks the point of attachment. X26 = COC1=CC(=O)N(C(=O)[C@@H](O*)C(C)C)[C@H]1Cc1ccccc1; Bn2Val = CC(C)[C@@H](C(=O)*)N(Cc1ccccc1)Cc1ccccc1; NMeV = CN[C@H](C(=O)O)C(C)C; dNMeA = CN[C@H](C)C(=O)O

Legend:
Experiment in all cases: NCI anticancer screen, dose series, 48 h
UO-31 = system: UO-31
RXF 393 = system: RXF 393
SF-268 = system: SF-268
SNB-75 = system: SNB-75
OVCAR-5 = system: OVCAR-5
SK-MEL-2 = system: SK-MEL-2
HCT-15 = system: HCT-15
HOP-92 = system: HOP-92
SK-MEL-28 = system: SK-MEL-28
Hs-578T = system: Hs-578T
A549 = system: A549
IGROV-1 = system: IGROV-1
SK-MEL-5 = system: SK-MEL-5
BT-549 = system: BT-549
HOP-62 = system: HOP-62
PC-3 = system: PC-3
KM12 = system: KM12
NCI-H522 = system: NCI-H522
ACHN = system: ACHN

## CC(NC(=O)CNP(=O)(c1ccccc1)c1ccccc1)C(=O)NC(Cc1ccccc1)C(=O)OCc1ccccc1 (stereo unspecified)
UO-31
  GI50: > 100 µM (inactive)
RXF 393
  GI50: 21 µM (inactive)
SF-268
  GI50: 21.6 µM (inactive)
SNB-75
  GI50: 19.6 µM (inactive)
OVCAR-5
  GI50: > 100 µM (inactive)
SK-MEL-2
  GI50: 51.2 µM (inactive)
HCT-15
  GI50: > 100 µM
HOP-92
  GI50: > 100 µM (inactive)
SK-MEL-28
  GI50: 23.8 µM (inactive)
Hs-578T
  GI50: 27.5 µM (inactive)
A549
  GI50: > 100 µM (inactive)
IGROV-1
  GI50: 66.5 µM (inactive)
SK-MEL-5
  GI50: 25.7 µM (inactive)
BT-549
  GI50: > 100 µM (inactive)
HOP-62
  GI50: > 100 µM (inactive)
PC-3
  GI50: 60.7 µM (inactive)
KM12
  GI50: 25.6 µM (inactive)
NCI-H522
  GI50: 19.6 µM (inactive)

## COc1cc2nc3n(c(=O)c2cc1OC)CCCCC3
UO-31
  GI50: > 100 µM (inactive)
RXF 393
  GI50: > 100 µM (inactive)
SF-268
  GI50: > 100 µM (inactive)
SNB-75
  GI50: > 100 µM (inactive)
OVCAR-5
  GI50: > 100 µM (inactive)
ACHN
  GI50: > 100 µM (inactive)
SK-MEL-2
  GI50: > 100 µM (inactive)
HCT-15
  GI50: > 100 µM
HOP-92
  GI50: > 100 µM (inactive)
SK-MEL-28
  GI50: > 100 µM (inactive)
Hs-578T
  GI50: > 100 µM (inactive)
A549
  GI50: > 100 µM (inactive)
IGROV-1
  GI50: > 100 µM (inactive)
SK-MEL-5
  GI50: > 100 µM (inactive)
BT-549
  GI50: > 100 µM (inactive)
HOP-62
  GI50: > 100 µM (inactive)
PC-3
  GI50: > 100 µM (inactive)
KM12
  GI50: > 100 µM (inactive)
NCI-H522
  GI50: > 100 µM (inactive)

## c1ccc(CSc2nc(N3CCCCC3)c3cn[nH]c3n2)cc1
UO-31
  GI50: 16.6 µM (inactive)
RXF 393
  GI50: 16.1 µM (inactive)
SF-268
  GI50: 23.8 µM (inactive)
SNB-75
  GI50: 20.7 µM (inactive)
OVCAR-5
  GI50: 27.9 µM (inactive)
ACHN
  GI50: 27.2 µM (inactive)
SK-MEL-2
  GI50: 16.2 µM (inactive)
HCT-15
  GI50: 33.2 µM
HOP-92
  GI50: 21.3 µM (inactive)
SK-MEL-28
  GI50: 19.9 µM (inactive)
Hs-578T
  GI50: 17.3 µM (inactive)
A549
  GI50: 27.4 µM (inactive)
IGROV-1
  GI50: 17.5 µM (inactive)
SK-MEL-5
  GI50: 16.5 µM (inactive)
BT-549
  GI50: 16.5 µM (inactive)
HOP-62
  GI50: 17.1 µM (inactive)
PC-3
  GI50: 22.5 µM (inactive)
KM12
  GI50: 14.7 µM (inactive)
NCI-H522
  GI50: 17 µM (inactive)

## Cc1c(/C=N\NC(=S)N(C)CCN(C)C(=S)N/N=C\c2c(C)n(C)n(-c3ccccc3)c2=O)c(=O)n(-c2ccccc2)n1C
UO-31
  GI50: > 100 µM (inactive)
RXF 393
  GI50: > 100 µM (inactive)
SF-268
  GI50: > 100 µM (inactive)
SNB-75
  GI50: 42.6 µM (inactive)
OVCAR-5
  GI50: > 100 µM (inactive)
ACHN
  GI50: > 100 µM (inactive)
SK-MEL-2
  GI50: > 100 µM (inactive)
HCT-15
  GI50: > 100 µM
HOP-92
  GI50: > 100 µM (inactive)
Hs-578T
  GI50: > 100 µM (inactive)
A549
  GI50: > 100 µM (inactive)
SK-MEL-5
  GI50: > 100 µM (inactive)
BT-549
  GI50: > 100 µM (inactive)
HOP-62
  GI50: > 100 µM (inactive)
PC-3
  GI50: > 100 µM (inactive)
KM12
  GI50: > 100 µM (inactive)
NCI-H522
  GI50: 41.7 µM (inactive)

## NNC(=O)CC(=O)Nc1ccc(Cl)cc1
UO-31
  GI50: > 100 µM (inactive)
RXF 393
  GI50: > 100 µM (inactive)
SF-268
  GI50: > 100 µM (inactive)
SNB-75
  GI50: > 100 µM (inactive)
OVCAR-5
  GI50: > 100 µM (inactive)
ACHN
  GI50: 66.7 µM (inactive)
SK-MEL-2
  GI50: > 100 µM (inactive)
HCT-15
  GI50: 34.7 µM
HOP-92
  GI50: > 100 µM (inactive)
SK-MEL-28
  GI50: > 100 µM (inactive)
Hs-578T
  GI50: > 100 µM (inactive)
A549
  GI50: > 100 µM (inactive)
IGROV-1
  GI50: > 100 µM (inactive)
SK-MEL-5
  GI50: > 100 µM (inactive)
BT-549
  GI50: > 100 µM (inactive)
HOP-62
  GI50: > 100 µM (inactive)
PC-3
  GI50: > 100 µM (inactive)
KM12
  GI50: > 100 µM (inactive)
NCI-H522
  GI50: > 100 µM (inactive)

## Cc1cc(C)cc(C(=N)c2ccccc2Cc2cccc3ccccc23)c1
UO-31
  GI50: 26.4 µM (inactive)
RXF 393
  GI50: 17.3 µM (inactive)
SF-268
  GI50: 15.9 µM (inactive)
OVCAR-5
  GI50: 16.6 µM (inactive)
ACHN
  GI50: 16.6 µM (inactive)
SK-MEL-2
  GI50: 37.8 µM (inactive)
HCT-15
  GI50: 16.1 µM
HOP-92
  GI50: 13.3 µM (inactive)
SK-MEL-28
  GI50: 16.9 µM (inactive)
Hs-578T
  GI50: 3.47 µM (inactive)
A549
  GI50: 16 µM (inactive)
IGROV-1
  GI50: 17.4 µM (inactive)
SK-MEL-5
  GI50: 16.6 µM (inactive)
BT-549
  GI50: 37.8 µM (inactive)
HOP-62
  GI50: 18 µM (inactive)
PC-3
  GI50: 45.8 µM (inactive)
KM12
  GI50: 11.4 µM (inactive)
NCI-H522
  GI50: 7.28 µM (inactive)

## COc1ccc(\N=C/C=C/C(=C/COC(C)=O)OC(C)=O)cc1
RXF 393
  GI50: 21.4 µM (inactive)
SF-268
  GI50: 31 µM (inactive)
SNB-75
  GI50: > 100 µM (inactive)
OVCAR-5
  GI50: 40.5 µM (inactive)
ACHN
  GI50: 17.3 µM (inactive)
SK-MEL-2
  GI50: 16.7 µM (inactive)
HCT-15
  GI50: 36.6 µM
HOP-92
  GI50: 20.5 µM (inactive)
SK-MEL-28
  GI50: 26.9 µM (inactive)
Hs-578T
  GI50: 62.8 µM (inactive)
A549
  GI50: 90.6 µM (inactive)
IGROV-1
  GI50: 21.1 µM (inactive)
SK-MEL-5
  GI50: 29 µM (inactive)
BT-549
  GI50: 33.3 µM (inactive)
HOP-62
  GI50: 51.4 µM (inactive)
PC-3
  GI50: 36.4 µM (inactive)
KM12
  GI50: 28.6 µM (inactive)
NCI-H522
  GI50: 6.62 µM (inactive)

## N#Cc1c(-c2ccc(Cl)cc2)cc(-c2ccc(Nc3ccnc4cc(C(F)(F)F)ccc34)cc2)[nH]c1=O
RXF 393
  GI50: 8.93 µM (inactive)
SF-268
  GI50: > 66.4 µM (inactive)
SNB-75
  GI50: 11.7 µM (inactive)
OVCAR-5
  GI50: > 40.5 µM (inactive)
ACHN
  GI50: > 100 µM (inactive)
SK-MEL-2
  GI50: 57.4 µM (inactive)
HCT-15
  GI50: > 100 µM
HOP-92
  GI50: 17.1 µM (inactive)
SK-MEL-28
  GI50: 8.49 µM (inactive)
Hs-578T
  GI50: 20 µM (inactive)
A549
  GI50: > 100 µM (inactive)
IGROV-1
  GI50: > 54.3 µM (inactive)
SK-MEL-5
  GI50: 19.1 µM (inactive)
BT-549
  GI50: 17.4 µM (inactive)
HOP-62
  GI50: 23.6 µM (inactive)
PC-3
  GI50: 69.2 µM (inactive)
KM12
  GI50: 67.1 µM (inactive)
NCI-H522
  GI50: 50 µM (inactive)

## COc1cccc(N2CCc3c(C)c(C#N)c4nc5ccccc5n4c32)c1
UO-31
  GI50: > 100 µM (inactive)
RXF 393
  GI50: 45.1 µM (inactive)
SF-268
  GI50: 43.7 µM (inactive)
SNB-75
  GI50: 41.5 µM (inactive)
OVCAR-5
  GI50: > 100 µM (inactive)
ACHN
  GI50: > 100 µM (inactive)
SK-MEL-2
  GI50: 94.8 µM (inactive)
HCT-15
  GI50: > 100 µM
HOP-92
  GI50: 22.1 µM (inactive)
SK-MEL-28
  GI50: > 100 µM (inactive)
Hs-578T
  GI50: 16.2 µM (inactive)
A549
  GI50: > 100 µM (inactive)
IGROV-1
  GI50: > 100 µM (inactive)
SK-MEL-5
  GI50: > 100 µM (inactive)
BT-549
  GI50: > 100 µM (inactive)
HOP-62
  GI50: > 100 µM (inactive)
PC-3
  GI50: > 100 µM (inactive)
NCI-H522
  GI50: 15.3 µM (inactive)

## CC(/C=C/C(=O)NO)=C\C(C)C(=O)c1ccc(N(C)C)cc1 (stereo unspecified)
UO-31
  GI50: 0.0498 µM (active)
RXF 393
  GI50: 0.0251 µM (active)
SF-268
  GI50: 0.0309 µM (active)
SNB-75
  GI50: 0.0244 µM (active)
OVCAR-5
  GI50: 0.114 µM (active)
ACHN
  GI50: 0.0231 µM (active)
SK-MEL-2
  GI50: 0.217 µM (active)
HCT-15
  GI50: 0.0313 µM
HOP-92
  GI50: 0.0652 µM (active)
SK-MEL-28
  GI50: 0.479 µM (active)
Hs-578T
  GI50: < 0.01 µM (active)
A549
  GI50: < 0.0122 µM (active)
IGROV-1
  GI50: 0.0259 µM (active)
SK-MEL-5
  GI50: 0.0313 µM (active)
BT-549
  GI50: 0.424 µM (active)
HOP-62
  GI50: 0.0391 µM (active)
PC-3
  GI50: 0.0156 µM (active)
KM12
  GI50: 0.0256 µM (active)
NCI-H522
  GI50: < 0.01 µM (active)

## COC1=CC(=O)N(C(=O)[C@@H](OC(=O)[C@@H](C)N(C)C(=O)[C@@H]2CCCN2C(=O)[C@H](C(C)C)N(C)C(=O)[C@@H](NC(=O)[C@H](C(C)C)N(Cc2ccccc2)Cc2ccccc2)C(C)C)C(C)C)[C@H]1Cc1ccccc1 (Bn2Val-V[NMeV]P[dNMeA]-X26)
UO-31
  GI50: 6.44 µM (inactive)
RXF 393
  GI50: > 26.2 µM (inactive)
SF-268
  GI50: > 100 µM (inactive)
OVCAR-5
  GI50: > 100 µM (inactive)
ACHN
  GI50: > 100 µM (inactive)
SK-MEL-2
  GI50: > 50.7 µM (inactive)
HCT-15
  GI50: > 100 µM
HOP-92
  GI50: > 49.3 µM (inactive)
SK-MEL-28
  GI50: > 100 µM (inactive)
Hs-578T
  GI50: > 100 µM (inactive)
A549
  GI50: > 100 µM (inactive)
IGROV-1
  GI50: > 100 µM (inactive)
SK-MEL-5
  GI50: 23.9 µM (inactive)
BT-549
  GI50: > 100 µM (inactive)
HOP-62
  GI50: > 57.3 µM (inactive)
PC-3
  GI50: 6.3 µM (inactive)
KM12
  GI50: > 31.3 µM (inactive)
NCI-H522
  GI50: > 100 µM (inactive)
